Data published in patent US20100093642A1, “NOVEL POLYPEPTIDES” (priority 2006, published 2010).
Residues, ends and D or L forms follow the SMILES beside them. No end group written: not given here.

Key:
Format in all cases: cell-based
[1] = system: human skin malignant melanoma cell line A2058; details: human, 24 h
[2] = system: human breast malignant carcinoma cell line MCF-7; details: human, 24 h
[3] = system: murine colon carcinoma cell line CT26; details: 4 h
Protocol: The cytotoxic effects of the peptides on different human tumour cells were measured using the MTT colorimetric assay (Mosmann, 1983). MIT (3-(4-5-dimethylthiazol-2-yl)-2,5-diphenyl tetrazolium bromide) is a soluble tetrazolium salt yielding a yellow solution when prepared in media or salt solutions lacking phenol red. Dissolved MIT is converted to an insoluble purple formazan by cleavage of the tetrazolium ring by dehydrogenase enzymes. This water insoluble formazan can be solubilized using isopropanol or other solvents and the dissolved material is measured spectrophotometrically. The absorbance was measured as a function of concentration of converted dye. The conversion of the soluble dye to the insoluble purple formazan is utilized in assays for measurement of cell proliferation. […] We used this assay to measure the degree of cell death caused by the peptides.
CT26 and A20 were maintained in RPMI-1640 medium supplemented with 10% heat inactivated FBS and 1% L-glutamine in a humidified atmosphere of 5% CO2 at 37° C. The human embryonic fibroblast cell line, MRC-5, was cultured as a monolayer in MEM medium, under the same conditions as described for the tumour cell lines. CT26 and MRC-5 cells to be used in the assay were grown to a minimum of 75% confluency, trypsinated and split to single cell suspension, counted and centrifuged at 1500 rpm for 7 min. The cell pellet was resuspended to a concentration of 1-2×10^5 cells/ml in RPMI-1640 medium without FBS and L-glutamine-L-alanine (assay-medium). The A20 cells were grown in suspension and adjusted to a concentration of 6×10^5 cells/ml in assay medium. All cell lines were routinely tested for mycoplasma infection using a PCR-based mycoplasma detection kit (MycoSensor PCR Assay Kit, Stratagene), following the supplier's instructions. All cell lines were mycoplasma free.
The cytotoxicity was measured using the MTT method (Mosmann, 1983), with minor modifications. The adherent cells (CT26 and MRC-5) were applied in 96-well culture plates in a volume of 100 μl assay medium and incubated at 37° C. for 24 hours. The A20 cells were applied to the microtiter plates just prior to testing. The medium was removed and the cells were treated with 100 μl of peptide solution (concentrations ranging from 0 to 400 μg/ml), diluted in serum-free medium, and the plates were incubated at 37° C. for 4 hours. Cells treated with Triton X-100 (1%) were used as positive control (100% killing) whereas cells plus medium only were used as negative control. Following the incubation period, 10 and 20 μl MTT (5 mg/ml, dissolved in PBS) were added to each well in the adherent cells (CT26 and MRC-5) and the A20 cells, respectively. After further incubation for 2 hours, a volume of 70 μl of the supernatant was removed and 100 μl acid alcohol (0.04 M HCl in isopropanol) added to each well in the adherent cell lines. For the cells grown in suspension (A20), a volume of 130 μl of the supernatant was removed and 100 μl acid alcohol was added. The plates were placed on a shaker for 1 hour at room temperature and read spectrophotometrically at 590 nm in a microtiter plate reader (Thermomax Molecular devices, New Jersey, USA). Cell survival (%, averaging at least 2 parallels) and IC50 values were estimated as described above.

**Q.** Which IC50 [1] does the source give for GWFKKTFHKVSHAVKSGIHAGQRGCSALGF [P17 HC] here?
**A.** < 10 µM

**Q.** What about the IC50 [2] of the same molecule?
**A.** < 10 µM

**Q.** And the IC50 [3]?
**A.** 20.4 µM

**Q.** Which results are given for CC[C@H](C)[C@H](NC(=O)CNC(=O)[C@H](CO)NC(=O)[C@H](CCCCN)NC(=O)[C@@H](NC(=O)[C@H](C)NC(=O)[C@H](Cc1c[nH]cn1)NC(=O)[C@H](CO)NC(=O)[C@@H](NC(=O)[C@H](CCCCN)NC(=O)[C@H](Cc1c[nH]cn1)NC(=O)[C@H](Cc1ccccc1)NC(=O)[C@@H](NC(=O)[C@H](CCCCN)NC(=O)[C@H](CCCCN)NC(=O)[C@H](Cc1ccccc1)NC(=O)C(Cc1c[nH]c2ccc(Br)cc12)NC(=O)CN)[C@@H](C)O)C(C)C)C(C)C)C(=O)N[C@@H](Cc1c[nH]cn1)C(=O)N[C@@H](C)C(=O)NCC(=O)N[C@@H](CCC(N)=O)C(=O)N[C@@H](CCCNC(=N)N)C(=O)NCC(=O)N[C@@H](CS)C(=O)N[C@@H](CO)C(=O)N[C@@H](C)C(=O)N[C@@H](CC(C)C)C(=O)NCC(=O)N[C@@H](Cc1ccccc1)C(=O)O (stereo partly shown) [P17 HC-Br] (HELM PEPTIDE1{G.[O=C(C(Cc1c[nH]c2ccc(Br)cc12)N[*:1])[*:2]].F.K.K.T.F.H.K.V.S.H.A.V.K.S.G.I.H.A.G.Q.R.G.C.S.A.L.G.F}$$$$V2.0)?
**A.** IC50 [1]: < 10 µM; IC50 [2]: < 10 µM; IC50 [3]: 33.1 µM

**Q.** For CC[C@H](C)[C@H](NC(=O)CNC(=O)[C@H](CO)NC(=O)[C@H](CCCCN)NC(=O)[C@@H](NC(=O)[C@H](C)NC(=O)[C@H](Cc1c[nH]cn1)NC(=O)[C@H](CO)NC(=O)[C@@H](NC(=O)[C@H](CCCCN)NC(=O)[C@H](Cc1c[nH]cn1)NC(=O)[C@H](Cc1ccccc1)NC(=O)[C@@H](NC(=O)[C@H](CCCCN)NC(=O)[C@H](CCCCN)NC(=O)[C@H](Cc1ccccc1)NC(=O)C(Cc1c[nH]c2ccc(Br)cc12)NC(=O)CN)[C@@H](C)O)C(C)C)C(C)C)C(=O)N[C@@H](Cc1c[nH]cn1)C(=O)N[C@@H](C)C(=O)O (stereo partly shown) [P17 HC-Br (1-20)] (HELM PEPTIDE1{G.[O=C(C(Cc1c[nH]c2ccc(Br)cc12)N[*:1])[*:2]].F.K.K.T.F.H.K.V.S.H.A.V.K.S.G.I.H.A}$$$$V2.0; N-terminus and C-terminus assumed), which IC50 [3] is on record?
**A.** 59.7 µM
